“Also recorded” adds a separate entry of the source.
What was measured:
[1] = biological target: recombinant human IRAP (Homo sapiens, UniProt Q9UIQ6); assay type: biochemical; conditions: HEK293
[2] = test system: leukotriene A4 hydrolase (LTA4H); conditions: cited from earlier work
[3] = test system: aminopeptidase N (APN); conditions: cited from earlier work
[4] = test system: IRAP from Chinese hamster ovary (CHO) cells; conditions: read-out: IC50 in CHO cells, hamster enzyme; cited from earlier work
[5] = test system: primary hippocampal neuron cultures; conditions: primary hippocampal neuron cultures from mice; cited from earlier work
[6] = Stability in human liver microsomes; assay type: in vitro ADME; conditions: HLM and MLM

Sequence of recombinant human IRAP (Q9UIQ6 whole entry): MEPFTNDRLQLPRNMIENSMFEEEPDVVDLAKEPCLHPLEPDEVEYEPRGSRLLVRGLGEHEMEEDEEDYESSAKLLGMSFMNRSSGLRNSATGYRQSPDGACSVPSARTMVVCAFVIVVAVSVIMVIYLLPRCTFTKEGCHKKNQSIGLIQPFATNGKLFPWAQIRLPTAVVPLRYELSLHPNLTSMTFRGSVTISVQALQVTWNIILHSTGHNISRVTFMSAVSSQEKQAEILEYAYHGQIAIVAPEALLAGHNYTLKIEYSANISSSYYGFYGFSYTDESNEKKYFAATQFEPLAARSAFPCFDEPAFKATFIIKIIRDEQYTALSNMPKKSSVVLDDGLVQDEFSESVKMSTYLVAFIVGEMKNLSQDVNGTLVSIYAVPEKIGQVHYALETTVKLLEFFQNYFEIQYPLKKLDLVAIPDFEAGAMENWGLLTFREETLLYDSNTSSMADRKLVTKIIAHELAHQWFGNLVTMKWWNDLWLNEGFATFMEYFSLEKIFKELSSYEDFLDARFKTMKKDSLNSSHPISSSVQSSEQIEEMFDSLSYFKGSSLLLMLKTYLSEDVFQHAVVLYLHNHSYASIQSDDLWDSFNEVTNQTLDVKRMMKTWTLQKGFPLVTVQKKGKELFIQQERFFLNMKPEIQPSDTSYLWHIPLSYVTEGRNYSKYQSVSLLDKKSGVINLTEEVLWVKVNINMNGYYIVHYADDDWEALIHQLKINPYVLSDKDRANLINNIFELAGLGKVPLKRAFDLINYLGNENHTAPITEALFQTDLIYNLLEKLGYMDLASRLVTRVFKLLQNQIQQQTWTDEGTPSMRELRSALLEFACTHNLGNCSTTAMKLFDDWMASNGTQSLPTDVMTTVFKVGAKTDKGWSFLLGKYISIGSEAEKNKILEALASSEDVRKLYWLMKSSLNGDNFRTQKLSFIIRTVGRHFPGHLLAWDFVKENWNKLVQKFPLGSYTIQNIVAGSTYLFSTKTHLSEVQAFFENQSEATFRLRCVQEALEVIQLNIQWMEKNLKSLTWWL

## O=C(Nc1cccc(-c2nnn[nH]2)c1)c1cc(Br)c(Cl)s1 [Compound 12]
[1]
  IRAP inhibition (in words): complete lack of inhibitory activity

## O=S(=O)(Nc1cccc(-c2nnn[nH]2)c1)c1cc(Cl)c(Cl)s1 [Compound 13]
[1]
  IRAP inhibition (in words): submicromolar activity

## O=S(=O)(Nc1cccc(-c2nnn[nH]2)c1)c1ccc(-c2ccccc2)cc1 [Compound 20]
[1]
  IRAP inhibition (in words): totally inactive

## O=S(=O)(Nc1cccc(-c2nnn[nH]2)c1)c1ccc(Cl)c2nonc12 [Compound 21]
[2]
  inhibition of LTA4H relative to IRAP (in words): much lower efficacy
[1]
  IRAP inhibition (in words): submicromolar
[3]
  inhibition of APN relative to IRAP (in words): much lower efficacy

## Cc1ccc(S(=O)(=O)Nc2cccc(-c3nnn[nH]3)c2)cc1C [Compound 25]
[2]
  inhibition of LTA4H relative to IRAP (in words): much lower efficacy
[4]
  IC50: 3100 nM
[1]
  IRAP inhibition (in words): submicromolar potency
[5]
  density of dendritic spines (in words): enhance the density of dendritic spines
[3]
  inhibition of APN relative to IRAP (in words): much lower efficacy

## O=S(=O)(Nc1cccc(-c2nnn[nH]2)c1)c1cc(Cl)c(Cl)cc1Cl [Compound 26]
[2]
  inhibition of LTA4H relative to IRAP (in words): much lower efficacy
[4]
  IC50: 2900 nM
[1]
  IRAP inhibition (in words): submicromolar potency
[5]
  density of dendritic spines (in words): enhance the density of dendritic spines
[3]
  inhibition of APN relative to IRAP (in words): much lower efficacy

## O=S(=O)(Nc1cccc(-c2nnn[nH]2)c1)c1cc(C(F)(F)F)ccc1C(F)(F)F [Compound 29, N-(3-(1H-Tetrazol-5-yl)phenyl)-2,5-bis(trifluoromethyl)benzenesulfonamide]
[1]
  IRAP inhibition (in words): submicromolar potency; also recorded: submicromolar affinity
[6]
  stability in the microsome assays (in words): high metabolic stability
